Measurements reported in patent US11344603B2, “Cytokine modulation” (AUCKLAND UNISERVICES LIMITED, priority 2017, dated 2022).
Entries after “also recorded” stand apart in the source; their conditions may differ.

Columns and labels:
ARPE-19 cells [1] = experiment: Cytokine and chemokine measurement by Cytometric Bead Array in ARPE-19 incubation medium; assay type: cell-based, human
Method: (§1) Human adult retinal pigmented epithelial cells (ARPE-19; American Type Culture Collection, Manassas, Va.) were cultured in Dulbecco's Modified Eagle Medium Nutrient Mixture F-12 medium (DMEM-F12; Thermofisher Scientific Inc., USA) supplemented with 10% foetal bovine serum (FBS; Invitrogen) and a 1× antibiotics and antimycotics mixture (AA, 100× stock) at 37° C. in a humidified 5% C02 incubator. Cells were grown in T75 flasks and the medium was changed twice per week until confluent and ready for experimentation.
(§2) At passage 6-12, cells were plated at 2.5×10^5 cells/mL in 8-well chamber slides for immunohistochemical studies or 24-well plates for ATP release assay and cytometric bead array analysis. Once confluent, the culture medium was changed to treatments in serum-free DMEM-F12 containing 1×AA. Some cultures were challenged with 15 mM glucose (High glucose (high glucose) group), a combination of pro-inflammatory cytokines 10 ng/mL TNF-α (Peprotech, USA) and 10 ng/mL IL-1β (Peprotech, USA) (Cytokines group), or a combination of high glucose, 10 ng/mL TNF-α and 10 ng/mL IL-1β (high glucose+Cytokines group). The untreated group received a medium change with no additional treatments (Basal group). All assessments were carried out 24 h post-treatment.
(§3) Peptide5 (H-Val-Asp-Cys-Phe-Leu-Ser-Arg-Pro-Thr-Glu-Lys-Thr-OH (SEQ ID NO: 1); China Peptides, China) was administered to cells challenged with high glucose and pro-inflammatory cytokines. Concentration-dependent effects were studied at 5, 10, 25 and 50 μM of […] after 24 h. […] O'Carroll, S J, et al. Connexin43 mimetic peptides reduce swelling, astrogliosis, and neuronal cell death after spinal cord injury. Cell communication & adhesion, 15:27-42 (2008).
Soluble cytokines and chemokines in the ARPE-19 incubation medium were measured simultaneously using multiplexed bead-based immunoassays, Cytometric Bead Array (CBA, BD Biosciences, USA). Three tests of 50 μL volume was taken from duplicate cultures in 24-well plates after 24 h and transferred into a 96-well plate to be used for the CBA assay. The analysis included six tests per group. The assay was conducted according to the manufacturer's instructions. Briefly, a ten-point standard curve ranging from 0 to 5000 pg/mL for each cytokine was prepared using the cytokine standard provided in each kit. The cytokines measured were human soluble CD54 (sICAM-1, cat #560269, BD Biosciences, USA), IL-6 (cat #558276), IL-8 (cat #558227), and MCP-1 (cat #558287). Samples and cytokine standards were incubated in the capture bead mixture for 1 h and Phycoerythrin (PE)-conjugated antibodies against each cytokine were added to the sample-bead mixture for 2 h incubation at room temperature. All buffers used were from the CBA human soluble protein master buffer kit (cat #558265, BD Biosciences, USA). Beads were washed and analysed using an Accuri C6 flow cytometer (BD Biosciences, USA). Mean fluorescence intensity for each bead cluster was converted into cytokine concentrations based on the ten-point standard curve using FCAP Array™ software (BD version 3.1) as described previously (O'Carroll et al., 2015).

[2] = test system: NLRP3 inflammasome complex; experiment: Immunohistochemical labelling and quantification of NLRP3 inflammasome complexes; assay type: cell-based, human; conditions: 24 h
Method: At passage 6-12, cells were plated at 2.5×10^5 cells/mL in 8-well chamber slides for immunohistochemical studies or 24-well plates for ATP release assay and cytometric bead array analysis. Once confluent, the culture medium was changed to treatments in serum-free DMEM-F12 containing 1×AA. Some cultures were challenged with 15 mM glucose (High glucose (high glucose) group), a combination of pro-inflammatory cytokines 10 ng/mL TNF-α (Peprotech, USA) and 10 ng/mL IL-1β (Peprotech, USA) (Cytokines group), or a combination of high glucose, 10 ng/mL TNF-α and 10 ng/mL IL-1β (high glucose+Cytokines group). The untreated group received a medium change with no additional treatments (Basal group). All assessments were carried out 24 h post-treatment. After 24 h of incubation in treatment media, cells were fixed with 4% paraformaldehyde for 10 min and permeabilised with 0.1% Triton X-100 in phosphate buffer saline (PBS) for 10 min. Cells were then incubated with mouse anti-NLRP3 (1:100; Abcam, USA) at 4° C. overnight followed by washing in PBS three times for 15 min. Goat anti-mouse Cy3 (1:500; Jackson Immuno Research, USA) secondary antibodies were applied to the slides and incubated at room temperature for 3 h. […] For NLRP3 immunohistochemical analysis, four images were analysed per well and the entire experiment was repeated three times. […] The number of NLPR3 spots were counted for each image.

ARPE-19 cells [3] = experiment: ATP release assay (ATPlite luminescence); assay type: cell-based, human; conditions: high glucose + cytokines, 24 h, compared to high glucose and cytokines
Method: as §1
At passage 6-12, cells were plated at 2.5×10^5 cells/mL in 8-well chamber slides for immunohistochemical studies or 24-well plates for ATP release assay and cytometric bead array analysis. Once confluent, the culture medium was changed to treatments in serum-free DMEM-F12 containing 1×AA. […]
After 24 h of incubation in treatment media, ATP release was measured in triplicates using 50 μL of culture medium taken from duplicate wells of 24-well plates. […] ATP released into the culture medium was measured using the ATPlite Luminescence ATP Detection Assay System as per manufacturer instructions (PerkinElmer, USA). ATP release (%) in Peptide5 treated cultures (treated group) were calculated relative to cells treated with high glucose and cytokines (injury group) using the formula: (OD490 of treated group−OD490 of injury group)/(OD490 of injury group)×100%.

connexin 43 hemichannels = conditions: cited from earlier work
ARPE-19 cells [4] = experiment: VEGF secretion by ARPE-19 cells; assay type: cell-based, human; conditions: for VEGF release: high glucose + cytokines + Peptagon, versus basal
Method: as §1, §2, §3

[5] = target: Cx43 carboxy-terminal domain (Rattus norvegicus, UniProt P08050); conditions: low pH conditions; Verma et al. 2009, 2010; cited from earlier work
[6] = high glucose + cytokines (10 ng/mL TNF-α, 10 ng/mL IL-1β), Peptagon 5, 10, 25, 50 μM, 24 h
[7] = high glucose + cytokines, 5, 10, 25, 50 μM, 24 h
[8] = high glucose + cytokines, Peptagon 25 μM, 24 h
[9] = 10 nM exogenous ATP alone, mean ± SD
[10] = high glucose + cytokines + Peptagon 25 μM + ATP 10 nM, 24 h

Sequence of Cx43 carboxy-terminal domain (P08050 whole entry, the tested form may be a part): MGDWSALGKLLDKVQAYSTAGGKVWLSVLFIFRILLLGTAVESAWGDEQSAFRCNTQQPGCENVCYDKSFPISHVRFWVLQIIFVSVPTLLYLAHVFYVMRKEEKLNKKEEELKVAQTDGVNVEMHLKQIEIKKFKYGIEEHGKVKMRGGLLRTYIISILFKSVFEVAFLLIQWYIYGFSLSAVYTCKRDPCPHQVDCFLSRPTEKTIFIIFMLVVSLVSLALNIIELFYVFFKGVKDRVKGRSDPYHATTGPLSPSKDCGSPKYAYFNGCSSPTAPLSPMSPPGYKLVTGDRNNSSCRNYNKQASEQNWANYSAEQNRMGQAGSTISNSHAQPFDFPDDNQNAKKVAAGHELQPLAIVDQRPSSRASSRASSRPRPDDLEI

H-Val-Asp-Cys-Phe-Leu-Ser-Arg-Pro-Thr-Glu-Lys-Thr-OH (H-VDCFLSRPTEKT-OH) [Peptagon]
IL-6 secretion (ARPE-19 cells [1]; [6]): significantly reduced | IL-8 secretion (ARPE-19 cells [1]; [6]): significantly reduced | MCP-1 secretion (ARPE-19 cells [1]; [6]): significantly reduced | sICAM-1 secretion (ARPE-19 cells [1]; [6]): significantly reduced; also recorded: decrease | concentration dependence of decrease in IL-6, IL-8 and MCP-1 secretion (ARPE-19 cells [1]; [7]): slight trend towards a concentration-dependent decrease; also recorded: concentration-dependent manner | concentration dependence of decrease in sICAM-1 secretion (ARPE-19 cells [1]; [7]): all peptide concentrations had the same effect | IL-6 secretion (ARPE-19 cells [1]; [8]): reduced secretion | IL-8 secretion (ARPE-19 cells [1]; [8]): reduced secretion | MCP-1 secretion (ARPE-19 cells [1]; [8]): reduced secretion | sICAM-1 secretion (ARPE-19 cells [1]; [8]): reduced secretion | NLRP3 inflammasome assembly ([2]; high glucose + inflammatory cytokines): blocked inflammasome assembly | ATP release (ARPE-19 cells [3]): significantly reduced | ATP release (ARPE-19 cells [3]; listed as Peptide5): prevented | connexin 43 hemichannel block versus gap junction coupling (connexin 43 hemichannels; 5, 10, 25 and 50 μM, O'Carroll et al. 2008): block connexin 43 hemichannels with minimal effect on gap junction cell-cell coupling | dose dependent action on hemichannels and gap junctions (connexin 43 hemichannels; O'Carroll et al., 2008): lower doses blocking gap junction hemichannel opening and higher doses uncoupling gap junctions between cells | VEGF release (ARPE-19 cells [4]; 24 h): restored VEGF secretion back to basal levels | VEGF release (ARPE-19 cells [4]; 24 h, listed as Peptide5): completely arrested

Nc1ncnc2c1ncn2[C@@H]1O[C@H](COP(=O)(O)OP(=O)(O)OP(=O)(O)O)[C@@H](O)[C@H]1O [ATP]
change in IL-6 secretion compared to basal conditions (ARPE-19 cells [1]; 10 nM exogenous ATP alone): no change | change in IL-8 secretion compared to basal conditions (ARPE-19 cells [1]; 10 nM exogenous ATP alone): no change | change in sICAM-1 secretion compared to basal conditions (ARPE-19 cells [1]; 10 nM exogenous ATP alone): no change | IL-6 secretion in response to extracellular ATP (ARPE-19 cells [1]; [9]): 8.22 ± 2.25 pg/mL | IL-8 secretion in response to extracellular ATP (ARPE-19 cells [1]; [9]): 67.70 ± 11.44 pg/mL | MCP-1 secretion in response to extracellular ATP (ARPE-19 cells [1]; [9]): 230.72 ± 37.08 pg/mL | sICAM-1 secretion in response to extracellular ATP (ARPE-19 cells [1]; [9]): 0 pg/mL | change in MCP-1 release compared to basal conditions (ARPE-19 cells [1]; 10 nM exogenous ATP alone, p≤0.0001): decrease | effect of exogenous ATP on Peptagon-mediated protection against IL-6 release (ARPE-19 cells [1]; [10]): back towards injury levels; also recorded: reversed | effect of exogenous ATP on Peptagon-mediated protection against IL-8 release (ARPE-19 cells [1]; [10]): back towards injury levels; also recorded: reversed | effect of exogenous ATP on Peptagon-mediated protection against MCP-1 release (ARPE-19 cells [1]; [10]): back towards injury levels; also recorded: reversed | effect of exogenous ATP on Peptagon-mediated protection against sICAM-1 release (ARPE-19 cells [1]; [10]): did not reach statistical significance | effect of exogenous ATP on Peptagon block of NLRP3 inflammasome assembly ([2]; high glucose + cytokines + Peptagon + 10 nM ATP): overrode the hemichannel blocker treatment | change in VEGF secretion compared to basal conditions (ARPE-19 cells [4]; 10 nM exogenous ATP alone): no change | VEGF secretion in response to extracellular ATP (ARPE-19 cells [4]; [9]): 56.62 ± 8.94 pg/mL | effect of exogenous ATP on Peptagon hemichannel block effect on VEGF release (ARPE-19 cells [4]; high glucose + cytokines + Peptagon + exogenous ATP, 24 h): completely overrode; also recorded: negated hemichannel blocker-mediated protection against VEGF release

RRNYRRNY [linear peptide RRNYRRNY targeting the Cx43 carboxy-terminal domain]
Cx43-based gap junction closure [5]: prevent Cx43-based gap junction closure under low pH conditions
